# Legend:
# [1] = system: NOX4 mRNA; test: NOX4 mRNA expression in mouse primary endothelial cells under high glucose (Realtime PCR); type: cell-based; details: FIG. 9
# Description: (§1) The detection method of Western Blot and mRNA used in the present embodiment is a detection method commonly used by person skilled in the art, and the specific detection method is described in “Molecular Biology Laboratory Manual” (People's Military Medical Press, published in 2011 Jun. 1). 3.2 Western blot and Realtime PCR confirmed that ATG could inhibit the overexpression of NOX4 in mouse's primary endothelial cells. The dose of 1 and 10 μmol/L corresponds to the last two bands.
# [2] = target: T1, PP2AB (Homo sapiens, UniProt P62714); test: DARTS-western blot of ATG binding to PP2A in 293T cells; details: ATG 100, 300, 1000 μM, pronase 1:1000, FIG. 1
# T1 construct: endogenous in cells; host or cells: 293T
# T1 sequence (P62714 whole entry): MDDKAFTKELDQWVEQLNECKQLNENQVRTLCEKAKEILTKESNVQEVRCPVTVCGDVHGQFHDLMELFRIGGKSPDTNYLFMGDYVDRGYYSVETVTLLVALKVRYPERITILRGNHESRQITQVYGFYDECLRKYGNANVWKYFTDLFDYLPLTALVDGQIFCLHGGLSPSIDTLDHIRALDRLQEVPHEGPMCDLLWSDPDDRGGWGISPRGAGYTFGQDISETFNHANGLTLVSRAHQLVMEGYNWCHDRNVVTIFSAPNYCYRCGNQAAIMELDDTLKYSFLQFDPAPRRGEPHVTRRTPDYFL
# Protocol: We used ATG to stimulate 293T cells. […] The applied ATG was formulated at 3 different concentrations: 100 μM, 300 μM, 1000 μM. So there are 5 groups of Western Blot: blank group (without addition of pronase), DMSO (pronase 1:1000), ATG 100 μM (pronase 1:1000), ATG 300 μM (pronase 1:1000), ATG 1000 μM (Pronase 1:1000). […] While pronase can digest proteins, it digests more ATG-unbinding proteins than ATG-binding proteins. […] This method is called DARTS.
# In FIG. 1: DARTS-western blot confirmed the binding of ATG to PP2AB; PP2A had three structural units, and ATG bound to the catalytic unit. The catalyst unit of the protein called PP2AB, the gene called PPP2CB.
# [3] = system: NOX4; test: NOX4 protein expression in mouse primary endothelial cells under high glucose (Western blot); type: cell-based
# Description: as §1
# [4] = system: diabetic kidney disease mice; test: Proteinuria in STZ-induced diabetic nephropathy mice; type: in vivo; details: 40 mg/kg oral once daily
# Protocol: When the mice were 6 weeks of age, streptozotocin (STZ)-induced diabetic nephropathy models were started by tail vein injection. The specific method is: STZ in accordance with the amount of 50 mg/kg is injected in tail vein. 72 hours after the injection, determine whether the modeling is successful by determining the level of blood glucose and urine. When the blood glucose level is more than 16 mmol/L and urine glucose level is between +++ and ++++, the model was considered successful. After 10 weeks of STZ injection, ATG was orally administered at a dose of 40 mg/kg once daily. The control group was given the same volume of DMSO (dimethyl sulfoxide) orally. Treatment was for 8 weeks. Urine protein levels were measured in each group. The number of the mice in each group is 10 in Table 3. […] ACEI: angiotensin converting enzyme inhibitors; ARBs: angiotensin receptor blockers.
structure (smiles),measurement,setting,value
"COc1cc(C[C@H]2C(=O)OC[C@@H]2Cc2ccc(OC)c(OC)c2)ccc1O [ATG, Arctigenin]",overexpression of NOX4 mRNA induced by high glucose,[1],inhibited the overexpression of NOX4 mRNA
same,PP2A binding (DARTS-western blot),[2],PP2A binding increased with the increasing concentration of ATG
same,NOX4/B-Tubulin Mean,[3]; ATG 1 uM,0.18
same,NOX4/B-Tubulin Mean,[3]; ATG 10 uM,0.12
same,proteinuria (urine protein level),"[4]; Model group - ATG (STZ mice), 0 week",0.98
same,proteinuria (urine protein level),"[4]; Model group - ATG (STZ mice), 1 week",0.95
same,proteinuria (urine protein level),"[4]; Model group - ATG (STZ mice), 2 week",1.10
same,proteinuria (urine protein level),"[4]; Model group - ATG (STZ mice), 3 week",0.66
same,proteinuria (urine protein level),"[4]; Model group - ATG (STZ mice), 4 week",0.66
same,proteinuria (urine protein level),"[4]; Model group - ATG (STZ mice), 5 week",0.37
same,proteinuria (urine protein level),"[4]; Model group - ATG (STZ mice), 6 week",0.22
same,proteinuria (urine protein level),"[4]; Model group - ATG (STZ mice), 7 week",0.18
same,proteinuria (urine protein level),"[4]; Model group - ATG (STZ mice), 8 week",0.18
same,proteinuria (urine protein level),"[4]; Normal group - ATG, 0 week",0.12
same,proteinuria (urine protein level),"[4]; Normal group - ATG, 1 week",0.11
same,proteinuria (urine protein level),"[4]; Normal group - ATG, 2 week",0.18
same,proteinuria (urine protein level),"[4]; Normal group - ATG, 3 week",0.12
same,proteinuria (urine protein level),"[4]; Normal group - ATG, 4 week",0.16
same,proteinuria (urine protein level),"[4]; Normal group - ATG, 5 week",0.18
same,proteinuria (urine protein level),"[4]; Normal group - ATG, 6 week",0.12
same,proteinuria (urine protein level),"[4]; Normal group - ATG, 7 week",0.14
same,proteinuria (urine protein level),"[4]; Normal group - ATG, 8 week",0.13
same,effect on proteinuria,"[4]; STZ mice, 8 weeks",significantly reduces proteinuria
same,effect on proteinuria compared with ACEI/ARBs,"[4]; STZ mice, 8 weeks",superior to the ACEI/ARBs
